Experimental data: ChEMBL document CHEMBL1201862, “PubChem BioAssay data set” (2004)
Active and inactive are the calls of the source.

Tests used:
[1] = biological target: Sphingosine 1-phosphate receptor 5 (Homo sapiens, UniProt Q9H228); assay: Late-stage fluorescence-based dose-response cell-based counterscreen assay to identify agonists of the Sphingosine 1-Phosphate Receptor 3 (S1P3): Sphingosine 1-Phosphate Receptor 5 (S1P5) agonist assay.; assay type: functional
[2] = biological target: Sphingosine 1-phosphate receptor 4 (Homo sapiens, UniProt O95977); assay: Late-stage fluorescence-based dose-response cell-based counterscreen assay to identify agonists of the Sphingosine 1-Phosphate Receptor 3 (S1P3): Sphingosine 1-Phosphate Receptor 4 (S1P4) agonist assay.; assay type: functional
[3] = biological target: Sphingosine 1-phosphate receptor 2 (Homo sapiens, UniProt O95136); assay: Late-stage fluorescence-based dose-response cell-based counterscreen assay to identify agonists of the Sphingosine 1-Phosphate Receptor 3 (S1P3): Sphingosine 1-Phosphate Receptor 2 (S1P2) agonist assay.; assay type: functional
[4] = Late-stage assay provider results from the probe development effort to identify agonists of the Sphingosine 1-Phosphate Receptor 3 (S1P3): luminescence-based cell-based dose response counterscreen assay to determine cytotoxicity of agonist compounds.; assay type: functional
[5] = biological target: Cyclin-dependent kinase 8 (Homo sapiens, UniProt P49336); assay: Navigating the Kinome. Panel member name: CDK8; assay type: functional
Activated CDC42 kinase 1 = Activated CDC42 kinase 1 (Homo sapiens, UniProt Q07912); assay: Navigating the Kinome. Panel member name: ACK1; assay type: functional
[6] = biological target: Mitogen-activated protein kinase 14 (Homo sapiens, UniProt Q16539); assay type: functional;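 also: part of a kinome-wide panel, MAPK14 entry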
[7] = biological target: Serine/threonine-protein kinase pim-1 (Homo sapiens, UniProt P11309); assay type: functional
[8] = biological target: Serine/threonine-protein kinase D3 (Homo sapiens, UniProt O94806); assay type: functional;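 also: determined within a kinase panel screen, with PRKCN as the panel member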
[9] = biological target: G protein-coupled receptor kinase 5 (Homo sapiens, UniProt P34947); assay: Navigating the Kinome. Panel member name: GPRK5; assay type: functional
[10] = biological target: Tyrosine-protein kinase BTK (Homo sapiens, UniProt Q06187); assay type: functional
[11] = biological target: Tyrosine-protein kinase Lck (Homo sapiens, UniProt P06239); assay type: functional;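 also: lck was assayed as one member of a kinase panel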
[12] = biological target: Calcium/calmodulin-dependent protein kinase type II subunit alpha (Homo sapiens, UniProt Q9UQM7); assay: Navigating the Kinome. Panel member name: CAMK2A; assay type: functional
[13] = biological target: Serine/threonine-protein kinase PAK 4 (Homo sapiens, UniProt O96013); assay type: functional;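 also: value obtained within a kinome profiling panel in which PAK4 was one of the panel members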
[14] = biological target: Cyclin-dependent kinase 7 (Homo sapiens, UniProt P50613); assay type: functional;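 also: value comes from a kinome-wide kinase profiling panel in which CDK7 is one member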
[15] = biological target: T1, Tyrosine-protein kinase JAK3 (Homo sapiens, UniProt P52333); assay type: functional
T1 sequence (P52333 whole entry): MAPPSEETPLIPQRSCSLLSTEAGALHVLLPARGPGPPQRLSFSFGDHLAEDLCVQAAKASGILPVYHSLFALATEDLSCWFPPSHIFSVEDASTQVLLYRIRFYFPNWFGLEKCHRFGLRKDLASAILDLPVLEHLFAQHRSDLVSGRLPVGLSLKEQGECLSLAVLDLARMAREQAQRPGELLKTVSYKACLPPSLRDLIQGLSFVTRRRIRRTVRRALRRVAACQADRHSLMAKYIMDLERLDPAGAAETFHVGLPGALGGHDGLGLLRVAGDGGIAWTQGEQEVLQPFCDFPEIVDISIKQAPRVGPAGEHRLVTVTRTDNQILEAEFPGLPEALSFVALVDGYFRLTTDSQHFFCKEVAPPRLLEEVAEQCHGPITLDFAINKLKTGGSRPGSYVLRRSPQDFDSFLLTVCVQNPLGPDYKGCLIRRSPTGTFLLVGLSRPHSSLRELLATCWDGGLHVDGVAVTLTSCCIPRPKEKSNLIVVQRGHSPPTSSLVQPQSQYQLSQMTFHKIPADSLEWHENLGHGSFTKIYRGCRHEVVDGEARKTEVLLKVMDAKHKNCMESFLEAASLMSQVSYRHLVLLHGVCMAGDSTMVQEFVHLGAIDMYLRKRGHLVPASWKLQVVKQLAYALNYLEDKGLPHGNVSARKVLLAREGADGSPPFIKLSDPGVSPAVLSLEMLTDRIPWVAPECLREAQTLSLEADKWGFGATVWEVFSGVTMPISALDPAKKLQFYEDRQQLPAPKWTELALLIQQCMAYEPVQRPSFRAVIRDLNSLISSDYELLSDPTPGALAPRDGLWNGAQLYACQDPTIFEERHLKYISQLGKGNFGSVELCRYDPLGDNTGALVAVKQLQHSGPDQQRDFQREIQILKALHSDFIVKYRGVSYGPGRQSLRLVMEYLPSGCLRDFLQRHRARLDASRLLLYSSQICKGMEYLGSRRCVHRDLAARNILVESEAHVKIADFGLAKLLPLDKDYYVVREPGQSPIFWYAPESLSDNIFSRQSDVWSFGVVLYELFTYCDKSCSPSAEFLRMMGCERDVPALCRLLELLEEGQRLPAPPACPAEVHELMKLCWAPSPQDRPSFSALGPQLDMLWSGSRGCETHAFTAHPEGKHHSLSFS

[16] = biological target: Fibroblast growth factor receptor 1 (Homo sapiens, UniProt P11362); assay type: functional
[17] = biological target: Mitogen-activated protein kinase 8 (Homo sapiens, UniProt P45983); assay type: functional;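 also: value comes from one member of a kinome-wide kinase profiling panel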
[18] = biological target: ALK tyrosine kinase receptor (Homo sapiens, UniProt Q9UM73); assay type: functional;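 also: ALK tested as one member of a kinase panel screen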
[19] = biological target: Dual specificity protein kinase CLK2 (Homo sapiens, UniProt P49760); assay type: functional
[20] = biological target: Mitogen-activated protein kinase kinase kinase kinase 4 (Homo sapiens, UniProt O95819); assay type: functional
[21] = biological target: Serine/threonine-protein kinase TAO1 (Homo sapiens, UniProt Q7L7X3); assay type: functional
Aurora kinase B = Aurora kinase B (Homo sapiens, UniProt Q96GD4); assay type: functional
[22] = biological target: Casein kinase I isoform alpha (Homo sapiens, UniProt P48729); assay type: functional
[23] = biological target: Tyrosine-protein kinase Fyn (Homo sapiens, UniProt P06241); assay type: functional
[24] = biological target: T2, Serine/threonine-protein kinase Chk1 (Homo sapiens, UniProt O14757); assay type: functional;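 also: measured as one member of a kinome-wide kinase profiling panel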
T2 sequence (O14757 whole entry): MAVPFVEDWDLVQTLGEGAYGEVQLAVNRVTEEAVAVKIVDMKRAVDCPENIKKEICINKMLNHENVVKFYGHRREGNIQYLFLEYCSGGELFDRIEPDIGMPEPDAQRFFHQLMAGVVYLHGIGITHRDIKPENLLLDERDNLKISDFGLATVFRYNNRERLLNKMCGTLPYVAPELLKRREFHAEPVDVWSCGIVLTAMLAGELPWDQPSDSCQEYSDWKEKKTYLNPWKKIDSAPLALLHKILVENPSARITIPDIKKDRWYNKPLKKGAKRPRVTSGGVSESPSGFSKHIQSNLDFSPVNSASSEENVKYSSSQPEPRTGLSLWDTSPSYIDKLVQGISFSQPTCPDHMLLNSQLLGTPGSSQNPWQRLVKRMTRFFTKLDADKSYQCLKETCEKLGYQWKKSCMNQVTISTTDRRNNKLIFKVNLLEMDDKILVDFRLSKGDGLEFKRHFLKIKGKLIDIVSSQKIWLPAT

Activin receptor type-1 = Activin receptor type-1 (Homo sapiens, UniProt Q04771); assay: Navigating the Kinome. Panel member name: ACVR1; assay type: functional
[25] = biological target: Death-associated protein kinase 3 (Homo sapiens, UniProt O43293); assay type: functional;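 also: measured as one member of a kinome-wide profiling panel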
Focal adhesion kinase 1 = Focal adhesion kinase 1 (Homo sapiens, UniProt Q05397); assay type: functional;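 also: measured as one member of a kinome panel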
[26] = biological target: Glycogen synthase kinase-3 alpha (Homo sapiens, UniProt P49840); assay type: functional;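 also: GSK3A result taken from a broad kinome-wide kinase panel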
[27] = biological target: Interleukin-1 receptor-associated kinase 1 (Homo sapiens, UniProt P51617); assay type: functional;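 also: IRAK1 tested as one member of a kinome panel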
[28] = biological target: Serine/threonine-protein kinase pim-3 (Homo sapiens, UniProt Q86V86); assay type: functional;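 also: value obtained as one member of a broad kinase panel profiling effort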
[29] = biological target: Calcium/calmodulin-dependent protein kinase type II subunit gamma (Homo sapiens, UniProt Q13555); assay type: functional
[30] = biological target: Calcium/calmodulin-dependent protein kinase type II subunit delta (Homo sapiens, UniProt Q13557); assay type: functional
[31] = biological target: Calcium/calmodulin-dependent protein kinase type II subunit beta (Homo sapiens, UniProt Q13554); assay type: functional
[32] = biological target: DNA dC->dU-editing enzyme APOBEC-3A (Homo sapiens, UniProt P31941); assay: SAR analysis of small molecule inhibitors of APOBEC3A DNA Deaminase via a fluorescence-based single-stranded DNA deaminase assay - Set 2.; assay type: functional; conditions: read-out: IC50_Mean
[33] = biological target: DNA dC->dU-editing enzyme APOBEC-3G (Homo sapiens, UniProt Q9HC16); assay: SAR analysis of small molecule inhibitors of APOBEC3G DNA Deaminase via a fluorescence-based single-stranded DNA deaminase assay - Set 2.; assay type: functional; conditions: read-out: IC50_Mean
[34] = biological target: Serine/threonine-protein kinase pim-2 (Homo sapiens, UniProt Q9P1W9); assay type: functional;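 also: value comes from a broad kinase panel profiling study in which PIM2 was one of the panel members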
[35] = biological target: cAMP-dependent protein kinase catalytic subunit alpha (Homo sapiens, UniProt P17612); assay type: functional
[36] = control 3'UTR Renilla luciferase suppression, dose response, counter-screen for Shn3 inhibitor project, cell-based, Clone20-Shn3RL, cherry-picked (AID 624133); assay type: functional
[37] = biological target: Testis-specific serine/threonine-protein kinase 1 (Homo sapiens, UniProt Q9BXA7); assay type: functional
[38] = HEp-2 cell cytotoxicity, dose response, cytotoxicity control for RSV inhibitor project, HTS (AID 2410); assay type: functional; conditions: human respiratory syncytial virus
[39] = biological target: Tyrosine-protein kinase SYK (Homo sapiens, UniProt P43405); assay type: functional
[40] = biological target: Tyrosine-protein kinase Fer (Homo sapiens, UniProt P16591); assay type: functional;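 also: FER tested as one member of a kinome panel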
[41] = HepG2 cell cytotoxicity, dose response, cytotoxicity control for Shn3 inhibitor project, CellTiter-Glo, cherry-picked (AID 624134); assay type: functional, cell-based
[42] = biological target: Testis-specific serine/threonine-protein kinase 2 (Homo sapiens, UniProt Q96PF2); assay type: functional;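 also: part of the Navigating the Kinome panel, target entry STK22B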
[43] = biological target: STE20-like serine/threonine-protein kinase (Homo sapiens, UniProt Q9H2G2); assay type: functional
[44] = biological target: Mitogen-activated protein kinase 13 (Homo sapiens, UniProt O15264); assay type: functional
Aurora kinase A = Aurora kinase A (Homo sapiens, UniProt O14965); assay type: functional;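 also: value from the Navigating the Kinome kinase panel profiling, panel entry STK6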
[45] = Shn3 3'UTR reporter inhibitors, dose response, cell-based, Clone20 osteoblasts, firefly luciferase, cherry-picked (AID 624132); assay type: functional;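 also: firefly luciferase luminescence from reporter carrying the Shn3 3'UTR in osteoblasts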
[46] = biological target: cAMP-dependent protein kinase catalytic subunit PRKX (Homo sapiens, UniProt P51817); assay type: functional
[47] = biological target: Maternal embryonic leucine zipper kinase (Homo sapiens, UniProt Q14680); assay type: functional
[48] = biological target: Tyrosine-protein kinase ITK/TSK (Homo sapiens, UniProt Q08881); assay type: functional;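 also: affinity for ITK measured as one member of a broad kinase panel profiling binding across the kinome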

Focal adhesion kinase 1, sequence (Q05397 whole entry): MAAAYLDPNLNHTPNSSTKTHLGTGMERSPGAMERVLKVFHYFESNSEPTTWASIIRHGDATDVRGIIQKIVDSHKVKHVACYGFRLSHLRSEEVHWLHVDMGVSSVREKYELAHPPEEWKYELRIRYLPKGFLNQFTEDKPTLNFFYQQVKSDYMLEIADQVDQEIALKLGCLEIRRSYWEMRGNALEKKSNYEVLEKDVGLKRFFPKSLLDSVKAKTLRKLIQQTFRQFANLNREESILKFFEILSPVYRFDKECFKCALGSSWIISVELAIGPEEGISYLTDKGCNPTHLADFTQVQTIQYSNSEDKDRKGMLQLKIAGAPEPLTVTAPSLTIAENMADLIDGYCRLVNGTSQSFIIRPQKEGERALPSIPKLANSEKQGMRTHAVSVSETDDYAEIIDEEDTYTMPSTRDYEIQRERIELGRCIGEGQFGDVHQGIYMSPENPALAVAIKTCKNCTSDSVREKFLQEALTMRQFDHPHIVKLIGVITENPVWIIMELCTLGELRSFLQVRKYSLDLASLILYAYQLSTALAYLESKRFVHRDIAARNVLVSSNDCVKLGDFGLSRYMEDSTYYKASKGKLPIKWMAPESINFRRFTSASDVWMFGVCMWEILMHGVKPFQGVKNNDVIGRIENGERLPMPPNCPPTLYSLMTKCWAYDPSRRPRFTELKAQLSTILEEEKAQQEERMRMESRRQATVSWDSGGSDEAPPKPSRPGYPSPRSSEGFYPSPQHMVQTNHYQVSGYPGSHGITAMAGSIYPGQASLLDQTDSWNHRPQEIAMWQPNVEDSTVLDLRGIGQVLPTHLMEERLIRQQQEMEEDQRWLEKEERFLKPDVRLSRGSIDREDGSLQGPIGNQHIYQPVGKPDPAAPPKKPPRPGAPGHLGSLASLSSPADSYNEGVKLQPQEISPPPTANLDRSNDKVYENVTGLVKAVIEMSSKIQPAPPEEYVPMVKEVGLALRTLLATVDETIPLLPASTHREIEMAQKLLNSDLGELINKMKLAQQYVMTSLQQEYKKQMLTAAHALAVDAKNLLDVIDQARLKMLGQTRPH
Serine/threonine-protein kinase pim-1, sequence (P11309 whole entry): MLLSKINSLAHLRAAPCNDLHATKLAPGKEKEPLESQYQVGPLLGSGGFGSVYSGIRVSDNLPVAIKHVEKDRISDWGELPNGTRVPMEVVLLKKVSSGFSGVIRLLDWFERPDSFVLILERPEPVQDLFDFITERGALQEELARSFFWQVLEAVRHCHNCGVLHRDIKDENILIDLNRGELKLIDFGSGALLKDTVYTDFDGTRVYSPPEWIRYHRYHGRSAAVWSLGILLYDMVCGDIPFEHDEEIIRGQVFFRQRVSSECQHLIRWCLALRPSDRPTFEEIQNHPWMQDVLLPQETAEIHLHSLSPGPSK
Mitogen-activated protein kinase 14, sequence (Q16539 whole entry): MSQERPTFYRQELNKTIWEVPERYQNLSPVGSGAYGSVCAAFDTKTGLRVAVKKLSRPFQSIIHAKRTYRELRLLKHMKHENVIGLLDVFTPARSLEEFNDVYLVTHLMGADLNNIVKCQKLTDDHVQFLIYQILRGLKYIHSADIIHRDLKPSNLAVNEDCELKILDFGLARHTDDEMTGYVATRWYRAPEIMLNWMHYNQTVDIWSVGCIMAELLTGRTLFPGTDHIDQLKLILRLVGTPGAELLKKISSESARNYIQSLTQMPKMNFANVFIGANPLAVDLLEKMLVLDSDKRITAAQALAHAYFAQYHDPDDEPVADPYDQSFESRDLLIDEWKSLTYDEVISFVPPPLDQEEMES
Sphingosine 1-phosphate receptor 4, sequence (O95977 whole entry): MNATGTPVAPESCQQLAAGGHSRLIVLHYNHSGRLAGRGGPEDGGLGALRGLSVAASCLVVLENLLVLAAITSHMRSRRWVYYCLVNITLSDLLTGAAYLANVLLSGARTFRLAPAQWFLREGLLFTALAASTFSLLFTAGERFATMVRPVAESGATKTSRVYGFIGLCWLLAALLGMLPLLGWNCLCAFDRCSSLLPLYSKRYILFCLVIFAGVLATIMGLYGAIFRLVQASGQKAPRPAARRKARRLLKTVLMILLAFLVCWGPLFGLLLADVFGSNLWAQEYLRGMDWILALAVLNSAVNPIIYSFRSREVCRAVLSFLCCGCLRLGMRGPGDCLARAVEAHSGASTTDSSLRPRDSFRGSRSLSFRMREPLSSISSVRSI
cAMP-dependent protein kinase catalytic subunit PRKX, sequence (P51817 whole entry): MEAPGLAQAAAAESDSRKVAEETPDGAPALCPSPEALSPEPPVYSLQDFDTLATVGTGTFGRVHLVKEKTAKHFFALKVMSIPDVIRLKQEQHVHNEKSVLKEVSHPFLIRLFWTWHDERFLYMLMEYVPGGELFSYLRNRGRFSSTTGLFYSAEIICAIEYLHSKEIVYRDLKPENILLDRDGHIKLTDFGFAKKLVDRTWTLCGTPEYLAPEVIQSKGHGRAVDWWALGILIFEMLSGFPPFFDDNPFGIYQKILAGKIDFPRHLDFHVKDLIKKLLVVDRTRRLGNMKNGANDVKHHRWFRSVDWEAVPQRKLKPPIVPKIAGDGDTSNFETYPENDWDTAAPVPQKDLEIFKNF
Sphingosine 1-phosphate receptor 2, sequence (O95136 whole entry): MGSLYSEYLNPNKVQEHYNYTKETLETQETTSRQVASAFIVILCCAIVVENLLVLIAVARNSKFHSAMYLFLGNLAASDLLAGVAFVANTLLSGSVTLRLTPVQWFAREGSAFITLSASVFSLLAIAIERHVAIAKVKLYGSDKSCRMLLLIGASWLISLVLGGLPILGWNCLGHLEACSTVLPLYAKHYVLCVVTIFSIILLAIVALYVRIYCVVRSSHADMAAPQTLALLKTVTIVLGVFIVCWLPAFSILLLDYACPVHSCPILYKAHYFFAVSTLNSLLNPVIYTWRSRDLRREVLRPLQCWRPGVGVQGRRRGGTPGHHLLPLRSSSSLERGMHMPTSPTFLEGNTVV
Tyrosine-protein kinase BTK, sequence (Q06187 whole entry): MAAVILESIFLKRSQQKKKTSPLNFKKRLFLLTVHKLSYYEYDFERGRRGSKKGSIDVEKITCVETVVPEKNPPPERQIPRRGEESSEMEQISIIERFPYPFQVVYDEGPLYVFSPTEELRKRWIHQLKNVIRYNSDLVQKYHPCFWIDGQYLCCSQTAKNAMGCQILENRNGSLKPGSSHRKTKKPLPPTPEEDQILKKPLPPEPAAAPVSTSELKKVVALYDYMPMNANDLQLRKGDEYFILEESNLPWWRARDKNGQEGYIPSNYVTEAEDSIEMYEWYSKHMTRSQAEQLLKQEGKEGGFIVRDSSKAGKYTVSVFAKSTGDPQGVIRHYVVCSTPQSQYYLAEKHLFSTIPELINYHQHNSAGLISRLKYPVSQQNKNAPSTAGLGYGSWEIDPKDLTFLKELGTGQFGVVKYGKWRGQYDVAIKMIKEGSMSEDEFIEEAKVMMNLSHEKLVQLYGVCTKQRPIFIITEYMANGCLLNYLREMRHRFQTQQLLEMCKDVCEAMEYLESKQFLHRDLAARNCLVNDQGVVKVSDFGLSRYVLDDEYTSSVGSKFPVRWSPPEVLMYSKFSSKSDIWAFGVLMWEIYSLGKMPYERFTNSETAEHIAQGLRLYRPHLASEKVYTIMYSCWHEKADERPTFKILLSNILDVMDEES
Calcium/calmodulin-dependent protein kinase type II subunit delta, sequence (Q13557 whole entry): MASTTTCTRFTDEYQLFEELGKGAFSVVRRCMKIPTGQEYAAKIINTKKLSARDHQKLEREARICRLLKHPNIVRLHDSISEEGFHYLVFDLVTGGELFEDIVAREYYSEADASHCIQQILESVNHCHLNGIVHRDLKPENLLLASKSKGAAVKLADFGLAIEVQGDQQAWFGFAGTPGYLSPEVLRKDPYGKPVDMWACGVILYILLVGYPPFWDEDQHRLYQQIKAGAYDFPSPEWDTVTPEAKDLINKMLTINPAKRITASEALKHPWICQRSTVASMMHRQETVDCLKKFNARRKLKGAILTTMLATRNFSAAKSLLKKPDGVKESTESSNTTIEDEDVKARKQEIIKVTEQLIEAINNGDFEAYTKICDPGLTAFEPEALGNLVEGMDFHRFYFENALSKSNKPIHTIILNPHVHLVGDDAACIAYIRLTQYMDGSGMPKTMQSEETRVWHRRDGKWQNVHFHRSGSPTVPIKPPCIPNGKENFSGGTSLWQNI
Tyrosine-protein kinase Fyn, sequence (P06241 whole entry): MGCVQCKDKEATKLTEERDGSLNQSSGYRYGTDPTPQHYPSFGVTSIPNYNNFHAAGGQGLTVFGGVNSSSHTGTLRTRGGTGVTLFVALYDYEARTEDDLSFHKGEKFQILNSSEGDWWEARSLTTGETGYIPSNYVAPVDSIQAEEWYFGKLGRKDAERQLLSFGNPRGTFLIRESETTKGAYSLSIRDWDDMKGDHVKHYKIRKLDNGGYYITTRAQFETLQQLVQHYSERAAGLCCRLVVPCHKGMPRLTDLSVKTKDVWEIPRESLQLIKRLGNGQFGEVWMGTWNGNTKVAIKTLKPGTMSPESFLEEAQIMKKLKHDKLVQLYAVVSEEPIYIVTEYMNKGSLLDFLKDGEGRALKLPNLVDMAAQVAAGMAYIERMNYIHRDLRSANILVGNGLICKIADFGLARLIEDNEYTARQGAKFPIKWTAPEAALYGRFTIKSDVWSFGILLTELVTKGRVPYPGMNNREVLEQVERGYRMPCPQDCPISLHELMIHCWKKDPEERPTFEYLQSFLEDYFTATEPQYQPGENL
Casein kinase I isoform alpha, sequence (P48729 whole entry, canonical isoform): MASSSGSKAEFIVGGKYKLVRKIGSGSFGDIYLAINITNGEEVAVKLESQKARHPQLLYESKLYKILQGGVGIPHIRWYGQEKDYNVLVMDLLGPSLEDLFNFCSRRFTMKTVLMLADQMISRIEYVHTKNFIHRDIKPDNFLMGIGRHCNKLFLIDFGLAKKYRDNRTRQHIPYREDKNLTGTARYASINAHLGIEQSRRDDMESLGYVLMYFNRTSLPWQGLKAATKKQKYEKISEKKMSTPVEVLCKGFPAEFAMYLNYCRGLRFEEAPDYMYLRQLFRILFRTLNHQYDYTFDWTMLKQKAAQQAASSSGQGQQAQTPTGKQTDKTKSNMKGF

## O=C(c1cc(C2CC2)on1)N(C1CCCCC1)C1CCCCC1
[1]
  EC50: > 25 µM (inactive)
[2]
  EC50: > 50 µM (inactive)
[3]
  EC50: > 50 µM (inactive)
[4]
  CC50: > 10 µM (inactive)

## CCOC(=O)Cc1nc2c(N)cccc2[nH]1
[5]
  Ki: > 3.98 µM (inactive)
Activated CDC42 kinase 1
  Ki: > 3.98 µM (inactive)
[6]
  Ki: > 3.98 µM (inactive)
[7]
  Ki: > 6.31 µM (inactive)
[8]
  Ki: > 3.98 µM (inactive)
[9]
  Ki: > 3.98 µM (inactive)
[10]
  Ki: > 6.31 µM (inactive)
[11]
  Ki: > 6.31 µM (inactive)
[12]
  Ki: > 3.98 µM (inactive)
[13]
  Ki: > 5.01 µM (inactive)
[14]
  Ki: > 3.98 µM (inactive)
[15]
  Ki: > 5.01 µM (inactive)
[16]
  Ki: > 3.98 µM (inactive)
[17]
  Ki: > 5.01 µM (inactive)
[18]
  Ki: > 6.31 µM (inactive)
[19]
  Ki: > 3.98 µM (inactive)
[20]
  Ki: > 5.01 µM (inactive)
[21]
  Ki: > 6.31 µM (inactive)
Aurora kinase B
  Ki: > 3.98 µM (inactive)
[22]
  Ki: > 3.98 µM (inactive)
[23]
  Ki: > 6.31 µM (inactive)
[24]
  Ki: 398 nM (active)
Activin receptor type-1
  Ki: > 3.98 µM (inactive)
[25]
  Ki: > 5.01 µM (inactive)
Focal adhesion kinase 1
  Ki: > 6.31 µM (inactive)
[26]
  Ki: > 3.98 µM (inactive)

## CCOC(=O)c1cn(-c2ccc(O)cc2C)c2cc(-c3ccccc3)ccc2c1=O
[7]
  Ki: 1.26 µM (active)
[27]
  Ki: 7.94 µM (active)
[28]
  Ki: 3.16 µM (active)
[29]
  Ki: 3.98 µM (active)
[30]
  Ki: 5.01 µM (active)
[31]
  Ki: 5.01 µM (active)

## CSc1nnc2n(CCC(C)C)c(=O)c3ccccc3n12
[32]
  IC50: > 99 µM (inactive)
[33]
  IC50: > 99 µM (inactive)

## Cc1ccc(-c2nn(C(C)(C)C)c3ncnc(N)c23)cc1
[34]
  Ki: > 1.58 µM (inactive)
[35]
  Ki: 1.58 µM (active)
[36]
  AC50: 1.97 µM (active)
[37]
  Ki: > 1.58 µM (inactive)
[38]
  CC50: 9.91 µM (active)
[39]
  Ki: > 1.58 µM (inactive)
[40]
  Ki: > 1.58 µM (inactive)
[41]
  AC50: > 70 µM (inactive)
[15]
  Ki: > 1.58 µM (inactive)
[42]
  Ki: > 1.58 µM (inactive)
[43]
  Ki: 1.58 µM (active)
[44]
  Ki: > 7.94 µM (inactive)
Aurora kinase A
  Ki: > 1.58 µM (inactive)
[45]
  AC50: 5.89 µM (active)
[46]
  Ki: > 1.58 µM (inactive)
[47]
  Ki: > 1.58 µM (inactive)
Focal adhesion kinase 1
  Ki: > 1.58 µM (inactive)
[48]
  Ki: > 1.58 µM (inactive)
